*1 amine or outer side, *2 acyl side, *3 side chain or, on linkers, in order; H or OH if unused. Where a SMILES comes first, the peptide text is derived from it. Bridges are numbered along the chain shown (N, C = ends). [ ]: non-standard residue; d: D form. The star is where a group is joined. NODAGA = O=C(O)CN1CCN(CC(=O)O)CCN(C(CCC(=O)*)C(=O)O)CC1; Tyr(3-Cl) = N[C@@H](Cc1ccc(O)c(Cl)c1)C(=O)O; X1 = O=C([C@@H]1CC(O)CN1[*:1])[*:2]
Experiments:
Type in all cases: in vivo
[1] = Blood analysis in rat model of carotid artery crush injury (blood clearance); conditions: relative to the other compounds compared
Experimental: (§1) Rat carotid endothelial injury model in vivo studies were conducted, wherein the common carotid artery is isolated and crushed briefly with a hemostat, resulting in mural thrombus formation at the site of the crush. The vessel wall fibrin is then imaged with our PET compounds. All six compounds were evaluated in this model.
(§2) Adult male Wistar rats were anesthetized by isoflurane (1-2% in medical air). Body temperature was maintained at 37° C. using a thermo-regulated heating pad. The right femoral vein and artery were cannulated for compound injection and blood sampling, respectively. Endothelial injury was induced by crush injury to the right common carotid artery (1-2 cm proximal to the carotid bifurcation) by clamping the vessel with a hemostat for 5 minutes. Immediately following the surgical procedures, rats were placed in a micro-PET/CT scanner. Compound (200-600 μL) was injected, PET-CT images were acquired, and blood samples were drawn from the femoral artery prior to compound injection and at 2, 5, 10, 15, 30, 60, 90, 120 min post injection. Tissues were harvested at the end for ex vivo analyses.
Blood samples were drawn from prior to probe injection and at 2, 5, 10, 15, 30, 60, 90, 120 min post injection. Each blood sample was weighed and counted using a gamma-counter. The activity in each sample was calculated as percent injected dose (% ID) per gram of tissue.

[2] = biological target: T1, vessel wall fibrin (Rattus norvegicus, UniProt P02680+P06399+P14480); assay: Autoradiography / PET imaging of injured ipsi- and contra-lateral carotid arteries; conditions: rat injured vs contra-lateral carotid; ^68Ga-19 vs ^68Ga-20
T1 construct: resulting in mural thrombus formation at the site of the crush; from tissue; host or cells: injured common carotid artery of Wistar rats (in vivo and ex vivo autoradiography)
T1 sequence (P06399 37-782 limits assumed): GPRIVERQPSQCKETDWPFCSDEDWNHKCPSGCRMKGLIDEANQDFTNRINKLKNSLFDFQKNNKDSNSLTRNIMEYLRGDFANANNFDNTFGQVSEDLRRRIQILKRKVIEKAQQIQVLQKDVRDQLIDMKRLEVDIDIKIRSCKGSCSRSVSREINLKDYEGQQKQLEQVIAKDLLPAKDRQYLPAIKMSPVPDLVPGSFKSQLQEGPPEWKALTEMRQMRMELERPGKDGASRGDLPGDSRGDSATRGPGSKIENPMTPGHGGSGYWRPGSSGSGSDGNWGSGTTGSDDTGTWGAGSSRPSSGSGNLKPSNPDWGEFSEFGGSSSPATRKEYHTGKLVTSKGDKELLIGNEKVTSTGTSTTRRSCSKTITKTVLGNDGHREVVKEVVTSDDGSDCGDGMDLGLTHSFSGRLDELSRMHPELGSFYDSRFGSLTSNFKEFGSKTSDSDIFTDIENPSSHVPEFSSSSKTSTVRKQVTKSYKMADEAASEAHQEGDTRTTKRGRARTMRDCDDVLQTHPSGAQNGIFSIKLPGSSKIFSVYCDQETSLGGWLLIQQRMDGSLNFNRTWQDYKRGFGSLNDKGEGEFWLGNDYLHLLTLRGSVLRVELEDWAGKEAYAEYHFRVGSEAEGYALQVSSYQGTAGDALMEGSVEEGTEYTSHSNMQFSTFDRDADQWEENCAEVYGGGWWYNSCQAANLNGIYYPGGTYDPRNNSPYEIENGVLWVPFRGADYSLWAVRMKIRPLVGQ
T1 sequence (P14480 33-479 limits assumed): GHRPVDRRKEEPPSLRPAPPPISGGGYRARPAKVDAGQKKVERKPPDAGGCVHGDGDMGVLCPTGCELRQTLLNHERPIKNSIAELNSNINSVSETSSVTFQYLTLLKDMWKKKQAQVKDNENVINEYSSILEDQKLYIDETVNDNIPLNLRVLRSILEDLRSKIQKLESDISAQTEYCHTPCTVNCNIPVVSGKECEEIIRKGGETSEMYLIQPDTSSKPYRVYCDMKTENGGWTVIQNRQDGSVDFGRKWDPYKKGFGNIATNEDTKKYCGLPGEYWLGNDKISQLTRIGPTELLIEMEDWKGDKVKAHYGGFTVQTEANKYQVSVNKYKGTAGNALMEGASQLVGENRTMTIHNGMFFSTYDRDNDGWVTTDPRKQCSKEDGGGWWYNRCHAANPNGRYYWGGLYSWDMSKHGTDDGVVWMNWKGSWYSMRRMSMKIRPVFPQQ
T1 sequence (P02680 27-445 limits assumed): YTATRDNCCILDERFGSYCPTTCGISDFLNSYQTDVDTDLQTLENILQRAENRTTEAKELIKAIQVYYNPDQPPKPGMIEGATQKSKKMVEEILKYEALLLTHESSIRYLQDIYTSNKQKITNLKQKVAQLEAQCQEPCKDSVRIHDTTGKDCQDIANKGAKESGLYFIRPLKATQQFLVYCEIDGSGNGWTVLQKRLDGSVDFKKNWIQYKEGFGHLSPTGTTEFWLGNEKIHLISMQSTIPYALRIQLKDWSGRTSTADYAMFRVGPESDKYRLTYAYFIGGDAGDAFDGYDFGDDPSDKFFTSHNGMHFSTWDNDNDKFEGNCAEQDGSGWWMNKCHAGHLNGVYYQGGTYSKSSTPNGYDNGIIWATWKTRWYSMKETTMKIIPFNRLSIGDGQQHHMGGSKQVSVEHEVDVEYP
Experimental: as §1, §2
The injured ipsi- and the contra-lateral carotid arteries were placed on a multipurpose film and imaged using a Perkin-Elmer Cyclone Plus Storage Phosphor system. […]

[3] = system: Fibrin clots; assay: PET in rabbit model of high risk plaque (plaque-rupture model)
Source text: Mean SUV values, TBRvc and TBRm were compared across all rabbits after in vivo PET.

SMILES: CC[C@H](C)[C@H](NC(=O)[C@H](Cc1cnc[nH]1)NC(=O)[C@@H]1CSSC[C@H](NC(=O)[C@@H](CCC(=O)O)NC(=O)[C@H](Cc2ccc(O)cc2)NC(=O)CCC(C(=O)O)N2CCN(CC(=O)O)CCN(CC(=O)O)CC2)C(=O)N2CC(O)C[C@H]2C(=O)N[C@@H](Cc2ccc(O)c(Cl)c2)C(=O)NCC(=O)N[C@@H](CC(C)C)C(=O)N1)C(=O)N[C@H](CCC(N)=O)C(N)=O (stereo partly drawn) [Compound ^68Ga-20, metal not drawn] ({NODAGA}-Y[dE]C[X1][Tyr(3-Cl)]GLCHI[dQ]-NH2; disulfide 3-8)
- blood clearance ([1]; rat carotid artery crush injury, 2-120 min post injection): faster blood clearance
- metabolic stability ([1]; rat): better metabolic stability
- ipsi: contra ratios [2]: better ipsi: contra ratios
- plaque rupture-to-control SUV ratios ([3]; across post injection imaging time points): higher plaque rupture-to-control SUV ratios were seen with longer post injection imaging time points
- PET-MR uptake along the aorta ([3]; plaque rupture group vs control): Fibrin clots were seen as uptake spots along the aorta on the plaque rupture group
- validation in rabbit model of high risk plaque ([3]; plaque-rupture model, in vivo PET): successfully validated

Reference: patent US20240115744A1, “FIBRIN-BINDING COMPOUNDS FOR IMAGING AND TREATMENT” (Collagen Medical, LLC, priority 2019, published 2024)
